Laboratory results reported in US8148367B2 (Takeda Pharmaceutical Company Limited, priority 2008, dated 2012).

These compounds were tested against T1, Recombinant human renin (Homo sapiens, UniProt P00797) (assay: In vitro enzymatic activity assay of renin inhibitors (fluorescence, QXL520/HiLyteFluo488 peptide substrate)). Details: recombinant human renin 3 nM, 1 μM substrate, pre-incubated 10 minutes at 37° C., incubation one hour, pH 7.4, 5% DMSO; read-out: IC50 of Exemplified Compounds Against Renin.
T1 construct: isolate the active form (residues 67-406); made in house; host or cells: FreeStyle 293-F cells, transient expression of pcDNA3.1(+)/hREN
T1 sequence (P00797 67-406): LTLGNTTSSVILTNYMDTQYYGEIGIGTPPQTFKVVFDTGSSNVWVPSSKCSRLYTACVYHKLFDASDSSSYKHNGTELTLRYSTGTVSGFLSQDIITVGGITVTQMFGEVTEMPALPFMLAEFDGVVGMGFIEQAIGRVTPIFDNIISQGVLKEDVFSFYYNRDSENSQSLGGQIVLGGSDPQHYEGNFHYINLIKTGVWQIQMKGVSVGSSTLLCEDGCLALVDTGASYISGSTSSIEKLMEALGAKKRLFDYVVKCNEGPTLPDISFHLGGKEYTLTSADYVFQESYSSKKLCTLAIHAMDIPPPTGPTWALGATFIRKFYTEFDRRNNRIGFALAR
Assay type: biochemical
`Cc1ccccc1-n1c(-c2ccccc2)c(C(=O)N2CCNCC2)n(Cc2cccc(OCCOc3ccccc3)c2)c1=O` [Example 73, 1-(3-(2-Phenoxyethoxy)benzyl)-4-phenyl-5-(piperazine-1-carbonyl)-3-o-tolyl-1H-imidazol-2(3H)-one] was tested, and the IC50 was 100 to 500 nM. Work on `COCCCOc1cccc(-n2c(-c3ccccc3)c(C(=O)N3CCNCC3)[nH]c2=O)c1` [Example 35, 1-(3-(3-Methoxypropoxy)phenyl)-5-phenyl-4-(piperazine-1-carbonyl)-1H-imidazol-2(3H)-one] yielded an IC50 of 500 to 1000 nM. `COc1ccccc1-n1c(-c2ccccc2)c(C(=O)N2CCNCC2)n(Cc2cccc(Oc3ccccc3)c2)c1=O` [Example 146, 1-(2-Methoxyphenyl)-3-(3-phenoxybenzyl)-5-phenyl-4-(piperazine-1-carbonyl)-1H-imidazol-2(3H)-one] was tested, and the IC50 was 100 to 500 nM. `COc1ccc(S(=O)(=O)NCCCn2c(C(=O)N3CCNCC3)c(-c3ccccc3)n(-c3ccccc3C)c2=O)cc1` [Example 222, 4-Methoxy-N-(3-(2-oxo-4-phenyl-5-(piperazine-1-carbonyl)-3-o-tolyl-2,3-dihydro-1H-imidazol-1-yl)propyl)benzenesulfonamide] showed an IC50 of 100 to 500 nM. For `NC(=O)Cn1c(C(=O)N2CCNCC2)c(-c2ccccc2)n(C2CCCCC2)c1=O` [Example 63, 2-(3-Cyclohexyl-2-oxo-4-phenyl-5-(piperazine-1-carbonyl)-2,3-dihydro-1H-imidazol-1-yl)acetamide], the IC50 was > 1000 nM. `NC(=O)Cn1c(C(=O)N2CCNC[C@H]2Cc2ccccc2)c(-c2ccccc2)n(C2CCCCC2)c1=O` [Example 67, (R)-2-(5-(2-Benzylpiperazine-1-carbonyl)-3-cyclohexyl-2-oxo-4-phenyl-2,3-dihydro-1H-imidazol-1-yl)acetamide] gave an IC50 of 100 to 500 nM. For `Cc1ccccc1-n1c(-c2ccccc2)c(C(=O)N2CCNCC2)n(CCNS(=O)(=O)c2ccccc2)c1=O` [Example 155, N-(2-(2-oxo-4-Phenyl-5-(piperazine-1-carbonyl)-3-o-tolyl-2,3-dihydro-1H-imidazol-1-yl)ethyl)benzenesulfonamide], the IC50 was > 1000 nM. In the case of `Cc1ccccc1-n1c(-c2ccccc2)c(C(=O)N2CCNCC2)n(CCNC(=O)NC(C)C)c1=O` [Example 216, 1-Isopropyl-3-(2-(2-oxo-4-phenyl-5-(piperazine-1-carbonyl)-3-o-tolyl-2,3-dihydro-1H-imidazol-1-yl)ethyl)urea], the IC50 is reported as > 1000 nM. In the case of `C=CCS(=O)(=O)Nc1ccccc1-n1c(-c2ccccc2)c(C(=O)N2CCNC[C@H]2Cc2ccccc2)[nH]c1=O` [Example 129, (R)—N-(2-(4-(2-Benzylpiperazine-1-carbonyl)-2-oxo-5-phenyl-2,3-dihydro-1H-imidazol-1-yl)phenyl)prop-2-ene-1-sulfonamide], the IC50 is reported as < 100 nM. `COc1cccc(S(=O)(=O)NCCn2c(C(=O)N3CCNCC3)c(-c3ccccc3)n(-c3ccccc3C)c2=O)c1` [Example 209, 3-Methoxy-N-(2-(2-oxo-4-phenyl-5-(piperazine-1-carbonyl)-3-o-tolyl-2,3-dihydro-1H-imidazol-1-yl)ethyl)benzenesulfonamide] was tested, and the IC50 was > 1000 nM. In the case of `COc1cccc(Cn2c(C(=O)N3CCNCC3)c(-c3ccccc3)n(-c3ccccc3C)c2=O)c1` [Example 143, 1-(3-Methoxybenzyl)-4-phenyl-5-(piperazine-1-carbonyl)-3-o-tolyl-1H-imidazol-2(3H)-one], the IC50 is reported as 100 to 500 nM. With `Cc1ccccc1-n1c(-c2ccccc2)c(C(=O)N2CCNCC2)n(CCCNC(=O)c2ccc(Cl)cc2)c1=O` [Example 243, 4-Chloro-N-(3-(2-oxo-4-phenyl-5-(piperazine-1-carbonyl)-3-o-tolyl-2,3-dihydro-1H-imidazol-1-yl)propyl)benzamide] the IC50 was > 1000 nM. In the case of `Cn1c(C(=O)N2CCNCC2)c(-c2ccccc2)n(-c2ccccc2)c1=O` [Example 54, 1-Methyl-3,4-diphenyl-5-(piperazine-1-carbonyl)-1H-imidazol-2(3H)-one], the IC50 is reported as > 1000 nM. `COc1ccccc1NC(=O)NCCCn1c(C(=O)N2CCNCC2)c(-c2ccccc2)n(-c2ccccc2C)c1=O` [Example 225, 1-(2-Methoxyphenyl)-3-(3-(2-oxo-4-phenyl-5-(piperazine-1-carbonyl)-3-o-tolyl-2,3-dihydro-1H-imidazol-1-yl)propyl)urea] was tested, and the IC50 was 100 to 500 nM. `CC(C)CC(=O)NCCCn1c(C(=O)N2CCNCC2)c(-c2ccccc2)n(C2CCCC[C@@H]2O)c1=O` (stereo partly drawn) [Example 172, N-(3-(3-((2S)-2-Hydroxycyclohexyl)-2-oxo-4-phenyl-5-(piperazine-1-carbonyl)-2,3-dihydro-1H-imidazol-1-yl)propyl)-3-methylbutanamide] was tested, and the IC50 was > 1000 nM. `O=C(c1[nH]c(=O)n(-c2cccc(N3CCOCC3)c2)c1-c1ccccc1)N1CCNC[C@H]1Cc1ccccc1` [Example 110, (R)-4-(2-Benzylpiperazine-1-carbonyl)-1-(3-morpholinophenyl)-5-phenyl-1H-imidazol-2(3H)-one] was tested, and the IC50 was < 100 nM. `O=C(Nc1ccccc1-n1c(-c2ccccc2)c(C(=O)N2CCNC[C@H]2Cc2ccccc2)[nH]c1=O)c1ccccc1` [Example 124, (R)—N-(2-(4-(2-Benzylpiperazine-1-carbonyl)-2-oxo-5-phenyl-2,3-dihydro-1H-imidazol-1-yl)phenyl)benzamide] was tested, and the IC50 was < 100 nM. With `O=C(c1c(-c2ccccc2)n(C2CCCN(S(=O)(=O)c3ccccn3)C2)c(=O)n1Cc1ccccc1)N1CCNCC1` (stereo not shown) [Example 101, 1-Benzyl-4-phenyl-5-(piperazine-1-carbonyl)-3-(1-(pyridin-2-ylsulfonyl)piperidin-3-yl)-1H-imidazol-2(3H)-one] the IC50 was > 1000 nM. In the case of `Cc1ccccc1-n1c(-c2ccccc2)c(C(=O)N2CCNCC2)n(CCCNC(=O)c2ccccc2F)c1=O` [Example 240, 2-Fluoro-N-(3-(2-oxo-4-phenyl-5-(piperazine-1-carbonyl)-3-o-tolyl-2,3-dihydro-1H-imidazol-1-yl)propyl)benzamide], the IC50 is reported as > 1000 nM. In the case of `COC(=O)c1cccc(Cn2c(C(=O)N3CCNCC3)c(-c3ccccc3)n(-c3ccccc3)c2=O)c1` [Example 80, Methyl 3-((2-oxo-3,4-diphenyl-5-(piperazine-1-carbonyl)-2,3-dihydro-1H-imidazol-1-yl)methyl)benzoate], the IC50 is reported as > 1000 nM. `Cc1ccccc1-n1c(-c2ccccc2)c(C(=O)N2CCNCC2)n(CCNC(=O)C(C)C)c1=O` [Example 236, N-(2-(2-oxo-4-phenyl-5-(piperazine-1-carbonyl)-3-o-tolyl-2,3-dihydro-1H-imidazol-1-yl)ethyl)isobutyramide] was tested, and the IC50 was > 1000 nM. `COCCOc1cccc(Cn2c(C(=O)N3CCNCC3)c(-c3ccccc3)n(-c3ccccc3C)c2=O)c1` [Example 27, 1-(3-(2-methoxyethoxy)benzyl)-4-phenyl-5-(piperazine-1-carbonyl)-3-o-tolyl-1H-imidazol-2(3H)-one] gave an IC50 of 100 to 500 nM. For `COc1cccc(NC(=O)NCCn2c(C(=O)N3CCNCC3)c(-c3ccccc3)n(-c3ccccc3C)c2=O)c1` [Example 215, 1-(3-Methoxyphenyl)-3-(2-(2-oxo-4-phenyl-5-(piperazine-1-carbonyl)-3-o-tolyl-2,3-dihydro-1H-imidazol-1-yl)ethyl)urea], the IC50 was 100 to 500 nM. `COCCOc1ccccc1-n1c(-c2ccccc2)c(C(=O)N2CCNCC2)[nH]c1=O` [Example 32, 1-(2-(2-Methoxyethoxy)phenyl)-5-phenyl-4-(piperazine-1-carbonyl)-1H-imidazol-2(3H)-one] was tested, and the IC50 was > 1000 nM. In the case of `Cc1ccccc1-n1c(-c2ccccc2)c(C(=O)N2CCNCC2)n(CCNC(=O)c2ccc(Cl)cc2)c1=O` [Example 233, 4-Chloro-N-(2-(2-oxo-4-phenyl-5-(piperazine-1-carbonyl)-3-o-tolyl-2,3-dihydro-1H-imidazol-1-yl)ethyl)benzamide], the IC50 is reported as 500 to 1000 nM. `O=C(c1c(-c2ccccc2)n(-c2ccccc2)c(=O)n1Cc1ccc(Cl)c(OC(F)(F)F)c1)N1CCNCC1` [Example 87, 1-(4-Chloro-3-(trifluoromethoxy)benzyl)-3,4-diphenyl-5-(piperazine-1-carbonyl)-1H-imidazol-2(3H)-one] was tested, and the IC50 was 100 to 500 nM. In the case of `Cc1ccccc1-n1c(-c2ccccc2)c(C(=O)N2CCNCC2)n(CCNS(=O)(=O)c2ccccc2Cl)c1=O` [Example 204, 2-Chloro-N-(2-(2-oxo-4-phenyl-5-(piperazine-1-carbonyl)-3-o-tolyl-2,3-dihydro-1H-imidazol-1-yl)ethyl)benzenesulfonamide], the IC50 is reported as 500 to 1000 nM. For `O=C(c1c(-c2ccccc2)n(-c2ccccc2)c(=O)n1Cc1cccc(-n2cccc2)c1)N1CCNCC1` [Example 88, 1-(3-(1H-Pyrrol-1-yl)benzyl)-3,4-diphenyl-5-(piperazine-1-carbonyl)-1H-imidazol-2(3H)-one], the IC50 was < 100 nM. For `O=C(c1c(-c2ccccc2)n(-c2cccc(N3CCOCC3)c2)c(=O)n1Cc1cccc(OCCOc2ccccc2)c1)N1CCNCC1` [Example 191, 1-(3-Morpholinophenyl)-3-(3-(2-phenoxyethoxy)benzyl)-5-phenyl-4-(piperazine-1-carbonyl)-1H-imidazol-2(3H)-one], the IC50 was 100 to 500 nM. With `Cn1c(C(=O)N2CCNC[C@H]2Cc2ccccc2)c(-c2ccccc2)n(-c2cccc(N3CCOCC3)c2)c1=O` [Example 55, (R)-4-(2-Benzylpiperazine-1-carbonyl)-3-methyl-1-(3-morpholinophenyl)-5-phenyl-1H-imidazol-2(3H)-one] the IC50 was 100 to 500 nM. In the case of `COc1cccc(S(=O)(=O)NCCCn2c(C(=O)N3CCNCC3)c(-c3ccccc3)n(-c3ccccc3C)c2=O)c1` [Example 221, 3-Methoxy-N-(3-(2-oxo-4-phenyl-5-(piperazine-1-carbonyl)-3-o-tolyl-2,3-dihydro-1H-imidazol-1-yl)propyl)benzenesulfonamide], the IC50 is reported as 100 to 500 nM.
